Test results published in the C3SDB collision cross section collection.
Where “and” joins values, the source holds several entries; their conditions need not be identical. Equal values may be shown once. Where a name gives a salt, the structure may show the parent alone.

Details: instrument: DT, single field, calibrated with ESI Low Concentration Tuning Mix (Agilent)

collision cross section (N2) ([M+H]+)	collision cross section (N2) ([M+Na]+)	collision cross section (N2) ([M-H]-)	collision cross section (N2) ([M+Na-2H]-)	collision cross section (N2) ([M+K]+) [Å²]	SMILES	collision cross section (N2) ([M+H2O-H]-) [Å²]
140.9 Å²	148.4 Å²	137.1 Å²			O=C(O)Cc1c[nH]c2ccc(O)cc12 [5-HYDROXYINDOLEACETATE]	
134.9 Å²	137.5 Å²	134 Å²			NC[C@H](O)CC[C@H](N)C(=O)O [5-HYDROXYLYSINE]	
121 Å² and 125.4 Å²	135.5 Å²				Cc1cnc(=O)[nH]c1N [5-METHYLCYTOSINE]	
171.4 Å²	177 Å²				Nc1ncnc2c1ncn2[C@@H]1O[C@H](COP(=O)(O)O)[C@@H](O)[C@H]1O [ADENOSINE MONOPHOSPHATE]	
196.6 Å² and 196.9 Å²	204 Å² and 204.2 Å²	188.2 Å² and 188.3 Å²	193.5 Å²		Nc1ncnc2c1ncn2[C@@H]1O[C@H](COP(=O)(O)OP(=O)(O)OP(=O)(O)O)[C@@H](O)[C@H]1O [ADENOSINE TRIPHOSPHATE]	
		173.1 Å²	179.5 Å²		Nc1ncnc2c1ncn2[C@@H]1O[C@H](COP(=O)(O)O)[C@@H](O)[C@H]1O [ADENOSINE-MONOPHOSPHATE]	
	146.6 Å²				OC[C@H]1O[C@H](O)[C@H](O)[C@@H](O)[C@@H]1O [ALPHA-D-GLUCOSE]	
	134.6 Å²				OC1OC[C@H](O)[C@H](O)[C@H]1O (some centres undefined) [ARABINOSE]	
	141.6 Å²	127.7 Å²			O=C1O[C@H]([C@@H](O)CO)C(O)=C1O [ASCORBATE]	
		118.6 Å² and 118.7 Å²			N[C@@H](CC(=O)O)C(=O)O [ASPARTATE]	
	140.5 Å²	126.3 Å²	147.2 Å²		O=P(O)(O)OC(CO)CO [BETA-GLYCEROPHOSPHATE]	
		188.2 Å²	186.1 Å²		NCCOP(=O)(O)OP(=O)(O)OC[C@H]1O[C@@H](n2ccc(N)nc2=O)[C@H](O)[C@@H]1O [CDP-ETHANOLAMINE]	
	197.5 Å²	203.1 Å²			C[C@H](CCC(=O)O)[C@H]1CC[C@H]2[C@@H]3[C@H](O)C[C@@H]4C[C@H](O)CC[C@]4(C)[C@H]3C[C@H](O)[C@]12C [CHOLATE]	
	286.3 Å²				CCCCCCCCCCCCCCCC(=O)O[C@H]1CC[C@@]2(C)C(=CC[C@H]3[C@@H]4CC[C@H]([C@H](C)CCCC(C)C)[C@@]4(C)CC[C@@H]32)C1 [CHOLESTERYL PALMITATE]	
198.3 Å²	207.8 Å²	205.9 Å²	210.2 Å²		C[N+](C)(C)CCOP(=O)([O-])OP(=O)(O)OC[C@H]1O[C@@H](n2ccc(N)nc2=O)[C@H](O)[C@@H]1O [CITICOLINE]	
241.4 Å²	255.5 Å²	244.4 Å²	246.2 Å²		CC(C)(COP(=O)(O)OP(=O)(O)OC[C@H]1O[C@@H](n2cnc3c(N)ncnc32)[C@H](O)[C@@H]1OP(=O)(O)O)[C@@H](O)C(=O)NCCC(=O)NCCS [COENZYME A]	
187.7 Å²	211 Å²				C[C@]12CCC(=O)C=C1CC[C@@H]1[C@@H]2CC[C@@]2(C)[C@H]1CC[C@]2(O)C(=O)CO [CORTEXOLONE]	
186.9 Å²		186.8 Å²		208.4	C[C@]12C[C@H](O)[C@H]3[C@@H](CCC4=CC(=O)CC[C@@]43C)[C@@H]1CC[C@@H]2C(=O)CO [CORTICOSTERONE]	
188.6 Å²	212.9 Å²	191.9 Å²		210.7	C[C@]12CCC(=O)C=C1CC[C@@H]1[C@@H]2[C@@H](O)C[C@@]2(C)[C@H]1CC[C@]2(O)C(=O)CO [CORTISOL]	
172.6 Å² and 176.8 Å²	181 Å² and 188.6 Å² and 188.8 Å²	171.8 Å² and 172 Å²			Nc1ncnc2c1ncn2[C@@H]1O[C@@H]2COP(=O)(O)O[C@H]2[C@H]1O [CYCLIC AMP]	
175.6 Å²	179.9 Å²	174.2 Å²	176.3 Å²		Nc1ccn([C@@H]2O[C@H](COP(=O)(O)OP(=O)(O)O)[C@@H](O)[C@H]2O)c(=O)n1 [CYTIDINE DIPHOSPHATE]	
		127.8 Å²			O=C1O[C@H]([C@@H](O)CO)C(=O)C1=O [DEHYDROASCORBATE]	
194.8 Å²	202 Å²	186.5 Å²	185.9 Å²		Nc1ncnc2c1ncn2[C@H]1C[C@H](O)[C@@H](COP(=O)(O)OP(=O)(O)OP(=O)(O)O)O1 [DEOXYADENOSINE TRIPHOSPHATE]	

collision cross section (N2) ([M+H]+)	collision cross section (N2) ([M+Na]+)	collision cross section (N2) ([M-H]-)	collision cross section (N2) ([M+Na-2H]-)	collision cross section (N2) ([M+K]+) [Å²]	SMILES	collision cross section (N2) ([M+H2O-H]-) [Å²]
129.7 Å²					C[N+](C)(C)CCCC(=O)[O-] [DEOXYCARNITINE]	
196.9 Å²					CC(=O)OCC(=O)[C@H]1CC[C@H]2[C@@H]3CCC4=CC(=O)CC[C@]4(C)[C@H]3CC[C@]12C [DEOXYCORTICOSTERONE ACETATE]	
	171.7 Å²	159.1 Å²		171.4	Nc1nc(=O)c2ncn([C@H]3C[C@H](O)[C@@H](CO)O3)c2[nH]1 [DEOXYGUANOSINE]	
	185.3 Å²	178.6 Å²	188.9 Å²		O=c1ccn([C@H]2C[C@H](O)[C@@H](COP(=O)(O)OP(=O)(O)OP(=O)(O)O)O2)c(=O)[nH]1 [DEOXYURIDINE TRIPHOSPHATE]	
	156.4 Å²	148.9 Å²			O=c1ccn([C@H]2C[C@H](O)[C@@H](CO)O2)c(=O)[nH]1 [DEOXYURIDINE]	
144 Å²	155 Å²	152.5 Å²	148.8 Å²	155.8	C[C@@H]1NC(=O)N[C@@H]1CCCCCC(=O)O [DETHIOBIOTIN]	
188.5 Å²	185.2 Å²	180.8 Å²	177.5 Å² and 185.6 Å²		Nc1nc(=O)c2ncn([C@H]3C[C@H](O)[C@@H](COP(=O)(O)OP(=O)(O)O)O3)c2[nH]1 [DGDP]	
		125.2 Å²			O=C1CC(C(=O)O)NC(=O)N1 (centres undefined) [DIHYDROOROTATE]	
	209.9 Å²	209.5 Å²	218.2 Å²		Cc1cn([C@H]2C[C@H](O)[C@@H](COP(=O)(O)OP(=O)(O)OC3O[C@H](CO)[C@@H](O)[C@H](O)[C@H]3O)O2)c(=O)[nH]c1=O (stereo partly drawn) [DTDP-D-GLUCOSE]	
		140.1 Å²			CNC[C@H](O)c1ccc(O)c(O)c1 [EPINEPHRINE]	
		123 Å²			NCCOP(=O)(O)O [ETHANOLAMINE PHOSPHATE]	
	154.4 Å²	144.1 Å²	154.9 Å²		O=C(CO)[C@@H](O)[C@H](O)[C@H](O)COP(=O)(O)O [FRUCTOSE 6-PHOSPHATE]	
	158.3 Å²	148.7 Å²			O=P(O)(O)OC1O[C@H](CO)[C@@H](O)[C@H](O)[C@H]1O (some centres undefined) [GLUCOSE 1-PHOSPHATE]	
	158.1 Å²	146.5 Å² and 146.6 Å²	156.9 Å²		O=P(O)(O)OC[C@H]1OC(O)[C@H](O)[C@@H](O)[C@@H]1O (some centres undefined) [GLUCOSE 6-PHOSPHATE]	
167.8 Å²	167 Å²	162.1 Å²	164.8 Å²		N[C@@H](CCC(=O)N[C@@H](CS)C(=O)NCC(=O)O)C(=O)O [GLUTATHIONE REDUCED]	
	137.1 Å²	127.2 Å²			O=P(O)(O)OCC(O)CO (centres undefined) [GLYCEROL 3-PHOSPHATE]	
199.7 Å²	202.2 Å²	202.2 Å²		208	C[C@H](CCC(=O)NCC(=O)O)[C@H]1CC[C@H]2[C@@H]3[C@H](O)C[C@@H]4C[C@H](O)CC[C@]4(C)[C@H]3C[C@H](O)[C@]12C [GLYCOCHOLATE]	
	149.6 Å²	142 Å²			O=C(O)CNC(=O)c1ccccc1 [HIPPURATE]	
125.9 Å²		120.2 Å²			NC(CCO)C(=O)O (centres undefined) [HOMOSERINE]	
	146.2 Å²	136 Å²			COc1cc(CC(=O)O)ccc1O [HOMOVANILLATE]	
	144.2 Å²	141.9 Å²			O=C(O)C(O)Cc1ccc(O)cc1 (centres undefined) [HYDROXYPHENYLLACTATE]	
135.9 Å²	143.5 Å²				O=C(O)Cc1c[nH]c2ccccc12 [INDOLE-3-ACETATE]	
		143.3 Å²			O=S(=O)(O)Oc1c[nH]c2ccccc12 [INDOXYL SULFATE]	

SMILES	collision cross section (N2) ([M+H]+)	collision cross section (N2) ([M+Na]+)	collision cross section (N2) ([M-H]-)	collision cross section (N2) ([M+Na-2H]-)	collision cross section (N2) ([M+K]+) [Å²]	collision cross section (N2) ([M+H2O-H]-) [Å²]
CCCCC(CC)COC(=O)c1ccccc1C(=O)OCC(CC)CCCC (centres undefined) [BIS(2-ETHYLHEXYL)PHTHALATE]	212.2 Å²					203
